Experimental data as given in patent US20070161052A1, “TRPM5 based assays and the use thereof for the identification of modulators of sweet, bitter or umami (savory) taste” (SENOMYX, INC., priority 2005, published 2007).
Entries after “also recorded” stand apart in the source; their conditions may differ.

How the values were obtained:
mouse TRPM5 = molecular target: T1, mouse TRPM5 (Mus musculus, UniProt Q9JJH7); experiment: Mouse TRPM5 membrane potential dye assay in transfected HEK293 cells; assay type: cell-based; conditions: for change in membrane potential in mouse TRPM5-expressing HEK293 cells: agonist of an expressed receptor or Ca2+ ionophore, dye R-8034; for change in membrane potential in mouse TRPM5 cells not transfected with the agonist's receptor: unrelated agonist control
T1 construct: expressed in transfected cells; host or cells: HEK293, in some experiments co-transfected with the AT1 or H1 receptor or stably expressing mT2R5 and Galpha15
T1 sequence (Q9JJH7 1-1158): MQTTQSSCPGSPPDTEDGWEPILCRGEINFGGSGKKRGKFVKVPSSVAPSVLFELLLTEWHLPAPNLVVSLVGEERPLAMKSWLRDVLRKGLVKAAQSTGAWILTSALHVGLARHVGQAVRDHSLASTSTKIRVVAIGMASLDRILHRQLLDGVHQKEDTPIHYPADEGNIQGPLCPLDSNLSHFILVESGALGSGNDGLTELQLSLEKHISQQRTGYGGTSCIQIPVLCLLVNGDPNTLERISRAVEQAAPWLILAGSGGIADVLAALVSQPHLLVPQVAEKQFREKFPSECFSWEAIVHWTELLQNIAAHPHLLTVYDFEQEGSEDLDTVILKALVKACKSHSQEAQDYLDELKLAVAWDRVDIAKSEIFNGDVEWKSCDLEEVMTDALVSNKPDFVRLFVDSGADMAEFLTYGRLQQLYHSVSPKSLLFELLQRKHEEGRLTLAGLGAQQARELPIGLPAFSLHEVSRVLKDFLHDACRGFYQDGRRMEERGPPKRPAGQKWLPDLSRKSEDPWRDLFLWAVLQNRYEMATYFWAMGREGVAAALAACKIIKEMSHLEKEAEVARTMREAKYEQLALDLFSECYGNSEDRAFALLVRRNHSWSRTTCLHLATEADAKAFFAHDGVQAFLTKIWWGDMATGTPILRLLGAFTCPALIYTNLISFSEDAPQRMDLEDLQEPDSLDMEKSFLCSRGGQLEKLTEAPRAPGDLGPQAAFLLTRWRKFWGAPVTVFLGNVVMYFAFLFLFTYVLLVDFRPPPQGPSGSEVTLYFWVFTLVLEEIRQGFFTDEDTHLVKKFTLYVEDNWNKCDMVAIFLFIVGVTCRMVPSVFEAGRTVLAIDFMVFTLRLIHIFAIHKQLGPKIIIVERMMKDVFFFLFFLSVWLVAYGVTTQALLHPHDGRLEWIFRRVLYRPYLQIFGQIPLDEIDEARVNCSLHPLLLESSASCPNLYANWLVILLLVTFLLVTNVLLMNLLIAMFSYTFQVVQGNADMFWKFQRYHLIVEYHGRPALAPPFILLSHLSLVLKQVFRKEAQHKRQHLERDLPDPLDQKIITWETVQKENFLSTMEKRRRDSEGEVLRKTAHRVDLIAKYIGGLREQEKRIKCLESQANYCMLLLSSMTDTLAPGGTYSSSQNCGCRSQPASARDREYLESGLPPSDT
Procedure: (§1) HEK-293 cells (about 50-70% confluency) contained in 10 cm dishes are transfected with 5 μg of TRPM5 DNA and pcDNA3 and 2 μg of RFP plasmids using TransH293.
(§2) After 24 hours, the cells are split into 384-well plates at ˜50,000 cells/well.
(§3) At 48 hours post-transfection the cells are loaded with membrane potential dyes in HBSS for 60 minutes at room temperature.
This experiment contained in FIG. 8 compares mTRPM5 responses to the calcium ionophore ionomycin and various GPCR agonists. As shown in the left top panel HEK293 cells were transfected with a plasmid encoding mouse TRPM5 (red trace) or a control plasmid (pUC; blue trace). 48 hours later cells were loaded with a membrane potential dye (R-8034; Molecular Devices Corporation).
This experiment contained in FIG. 9 compares hTRPM5 and mTRPM5 responses to GPCR agonist compounds. As shown in the left panel HEK293 cells stably expressing the cycloheximide bitter receptor mT2R5 and the promiscuous G protein G[…]15 were transfected with a plasmid encoding for mouse TRPM05 or a control plasmid (pUC). 48 hours later cells were loaded with a membrane potential dye (R-8034; Molecular Devices Corporation).

hTRPM5 = molecular target: T2, hTRPM5 (Homo sapiens, UniProt Q9NZQ8); experiment: hTRPM5 membrane potential dye FLIPR assay in HEK-293 cells (transient or stable clone); assay type: cell-based; conditions: for change in membrane potential in hTRPM5-expressing HEK293 cells: agonist of an expressed receptor (endogenous muscarinic, transfected H1 or AT1) or Ca2+ ionophore, dye R-8034; for dependence of agonist-induced change in membrane potential on extracellular Na+: NaCl versus NMDG replacement; for change in membrane potential in hTRPM5-expressing cells not transfected with the agonist's receptor: unrelated agonist control
T2 construct: expressed in transfected cells
T2 sequence (Q9NZQ8 1-1165): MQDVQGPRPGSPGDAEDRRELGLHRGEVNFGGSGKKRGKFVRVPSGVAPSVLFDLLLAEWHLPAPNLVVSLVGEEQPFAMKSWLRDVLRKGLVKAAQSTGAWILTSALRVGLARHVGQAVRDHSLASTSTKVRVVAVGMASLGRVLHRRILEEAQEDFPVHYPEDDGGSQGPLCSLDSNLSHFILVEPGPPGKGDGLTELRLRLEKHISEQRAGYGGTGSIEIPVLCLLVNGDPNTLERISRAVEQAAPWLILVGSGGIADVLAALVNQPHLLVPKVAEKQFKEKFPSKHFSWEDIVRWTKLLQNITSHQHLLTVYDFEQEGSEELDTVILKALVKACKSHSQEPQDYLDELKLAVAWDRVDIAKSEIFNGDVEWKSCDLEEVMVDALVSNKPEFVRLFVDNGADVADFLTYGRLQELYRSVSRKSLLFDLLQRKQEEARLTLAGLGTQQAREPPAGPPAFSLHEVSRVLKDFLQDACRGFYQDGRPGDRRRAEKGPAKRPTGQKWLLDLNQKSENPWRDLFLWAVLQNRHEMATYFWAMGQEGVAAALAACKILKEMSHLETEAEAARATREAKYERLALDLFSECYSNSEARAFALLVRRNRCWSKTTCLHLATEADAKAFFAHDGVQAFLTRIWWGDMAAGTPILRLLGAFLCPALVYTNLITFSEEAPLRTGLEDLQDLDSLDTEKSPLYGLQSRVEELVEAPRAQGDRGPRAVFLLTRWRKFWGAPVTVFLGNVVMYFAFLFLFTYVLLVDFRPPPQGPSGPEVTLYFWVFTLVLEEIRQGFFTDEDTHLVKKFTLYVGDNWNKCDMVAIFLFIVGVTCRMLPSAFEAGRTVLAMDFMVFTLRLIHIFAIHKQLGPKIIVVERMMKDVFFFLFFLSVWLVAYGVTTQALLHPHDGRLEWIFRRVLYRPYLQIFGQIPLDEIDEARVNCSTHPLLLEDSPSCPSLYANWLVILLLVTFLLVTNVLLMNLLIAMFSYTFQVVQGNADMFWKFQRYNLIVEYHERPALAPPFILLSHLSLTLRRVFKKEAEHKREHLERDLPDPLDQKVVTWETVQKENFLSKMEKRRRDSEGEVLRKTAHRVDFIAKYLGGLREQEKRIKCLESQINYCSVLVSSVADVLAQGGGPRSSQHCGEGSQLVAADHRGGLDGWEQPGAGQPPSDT
Procedure: as §1, §2, §3
Compounds plates are prepared in HBSS.
HEK-293 cells transfected with TRPM5 nucleic acid sequence containing plasmid that comprises neo marker and stable cell clones are selected using neomycin.
Screened clones are screened using membrane potential dyes and FLIPR, for a GPCR-induced change in membrane potential.
This experiment is contained in FIG. 10. In the experiment HEK293 cells were transfected with a plasmid encoding hTRPM5 in pcDNA3.Neo. 48 hours later cells were put in selection media (500 ug/ml neomycin) and stable clones were selected and expanded. Clone #51 was further characterized for carbachol-induced hTRPM5 activation. Cells were loaded with a membrane potential dye (R-8034; Molecular Devices Corporation). […]

Ca^2+ mobilization = experiment: Ca2+ mobilization with Ca2+-sensitive dye (Fluo3) in HEK293 cells; assay type: cell-based, human
Procedure: (§4) As shown in the Left Panel: HEK293 cells were transfected with a plasmid encoding hTRPM5. 48 hours later cells were loaded with either a membrane potential dye (Molecular Devices Corporation; R-8034 or DisBAC) or a Ca^2+-sensitive dye (Fluo3). […] As shown in the Right Panel: HEK293 cells were transfected with a control plasmid (pUC) and treated as described above.
This experiment the results of which are contained in FIG. 7 compared TRPM5 responses to the Ca++ ionophore ionomycin. As shown in the left panel HEK293 cells were transfected with a plasmid encoding hTRPM5. 48 hours later cells were loaded with either a membrane potential dye (R-8034; Molecular Devices Corporation) or a Ca^2+-sensitive dye (Fluo3).
(§5) In this experiment the results of which are contained in FIG. 11 a library of ˜15,000 compounds (10 uM) was screened for hTRPM5 modulators using clone #51 (described in FIG. 10). In our initial screening conditions hTRPM5 was maximally stimulated with carbachol, using concentrations of 50 uM to 100 uM.

[1] = tested on: HEK293 cells lacking hTRPM5; experiment: Membrane potential dye assay in HEK293 cells lacking hTRPM5 (control plasmid pUC); assay type: cell-based, human; conditions: agonist stimulation
Procedure: as §4
This experiment the results of which are shown in FIG. 5 evaluated TRPM5 induced changes in membrane potential. As shown in the left panel HEK293 cells were transfected with plasmids encoding the H1 histamine receptor with (red trace) or without (blue trace) a plasmid encoding hTRPM5. 48 hours later cells were loaded with a membrane potential dye (R-8034; Molecular Devices Corporation).
as §5

| Molecule | change in membrane potential in mT2R5 / G15 stable HEK293 cells transfected with mouse TRPM5 (mouse TRPM5; versus pUC control) | change in membrane potential in mT2R05 / G15 stable HEK293 cells transfected with human TRPM5 (hTRPM5; versus pUC control) | change in membrane potential in mouse TRPM5-expressing HEK293 cells (mouse TRPM5) | change in membrane potential in hTRPM5-expressing HEK293 cells (hTRPM5) | Ca^2+ response in hTRPM5-transfected HEK293 cells (Ca^2+ mobilization) | change in membrane potential in cells lacking hTRPM5 [1] | change in membrane potential in mouse TRPM5 cells not transfected with the agonist's receptor (mouse TRPM5) | dependence of agonist-induced change in membrane potential on extracellular Na+ (hTRPM5) | change in membrane potential in hTRPM5-expressing cells not transfected with the agonist's receptor (hTRPM5) | hTRPM5 activity produced (hTRPM5; 2 um carbachol) | Ca^2+ response in control plasmid (pUC) transfected HEK293 cells (Ca^2+ mobilization) |
| --- | --- | --- | --- | --- | --- | --- | --- | --- | --- | --- | --- |
| C[C@@H]1C[C@@H]([C@H](O)CC2CC(=O)NC(=O)C2)C(=O)[C@@H](C)C1 [cycloheximide] | dose-dependent increase in membrane potential that was much greater than what is seen in cells not expressing mouse TRPM5 | dose-dependent increase in membrane potential that is much greater than what is seen in cells not expressing human TRPM5 |  |  |  |  |  |  |  |  |  |
| CNc1ccc2oc(C[C@H]3O[C@@]4(CC[C@H]3C)O[C@H]([C@H](C)C(=O)c3ccc[nH]3)[C@H](C)C[C@H]4C)nc2c1C(=O)O [A-23187] |  |  | TRPM5-dependent changes in membrane potential | TRPM5-dependent changes in membrane potential |  |  |  |  |  |  |  |
| C[C@H](CCC(=O)O)C[C@H](C)C[C@H](C)C(=O)/C=C(\O)[C@H](C)C[C@H](C)C/C=C/[C@@H](C)[C@@H](O)[C@@H](C)[C@@H](O)C[C@@H]1CC[C@@](C)([C@H]2CC[C@@](C)([C@@H](C)O)O2)O1 [ionomycin] |  |  | dose-dependent increase in membrane potential that is significantly greater in mouse-TRPM5 transfected cells; also recorded: TRPM5-dependent changes in membrane potential | concomitant increase in membrane potential; also recorded: dose-dependent increase in membrane potential that is noticeably greater in hTRPM5-expressing cells; also recorded: TRPM5-dependent changes in membrane potential | leads to Ca^2+ influx |  |  |  |  |  |  |
| angiotensin II (DRVYIHPF) [AT1 angiotensin II receptor agonist] |  |  | dose-dependent increase in membrane potential | dose-dependent increase in membrane potential |  | no significant change in membrane potential | had no effect | only observed in the presence of NaCl | did not have any effect |  |  |
| C[N+](C)(C)CCOC(N)=O [carbachol] |  |  | dose-dependent increase in membrane potential | concomitant increase in membrane potential; also recorded: dose-dependent increase in membrane potential; also recorded: dose-dependent increase in membrane potential that is much greater than what is seen in cells not expressing hTRPM5 | leads to Ca^2+ mobilization | no change in membrane potential is observed; also recorded: no significant change in membrane potential |  | only observed in the presence of NaCl |  | 10-25% | a significant increase in Ca^2+ is triggered |
| NCCc1c[nH]cn1 [histamine] |  |  | dose-dependent increase in membrane potential | dose-dependent increase in membrane potential |  | no significant change in membrane potential | did not have any effect | only observed in the presence of NaCl | has no effect |  |  |
